As a reminder, the IC50 is the concentration that gives 50% inhibition. By IC90 is commonly meant the concentration needed for an effect of 90%.

Data set [1] is described as follows: Clinical pharmacokinetics, plasma tinengotinib by LC-MS/MS. Type of data set: in vivo, human. The note with it: doses of 8 mg and above. As for the experimental part: Dose-escalation sample size was determined by dose levels and emerging toxicities. […] Descriptive statistics were used for safety, pharmacokinetic, and efficacy data as outlined in the protocol and as specified in the statistical analysis plan. Pharmacokinetic parameters were estimated using Phoenix WinNonlin version 7.0 or higher (Certara USA, Inc., Princeton, NJ). All other statistical analyses were performed with SAS software version 9.4 (SAS Institute Inc., Cary, NC).

The target of another data set is FGFR2 (Homo sapiens, UniProt P21802). Kind of data set: ELISA assay for cellular phosphorylated FGFR2 in KATO III cell line cultured in healthy donor plasma. Type of data set: cell-based. As for the experimental part: Cellular phosphorylated FGFR2 was determined using the commercial enzyme-linked immunosorbent assay (ELISA) kit (R&D Systems) according to the manufacturer’s instructions.
Supplementary Table S6. […] Receptor phosphorylation was determined by enzyme-linked immunosorbent assay.
On the technique in general: An ELISA detects its analyte on a solid surface through an enzyme-linked reagent.

The conditions of data set [2]: cited from earlier work.
The conditions of data set [3]: phase II study NCT04919642 ref 17; cited from earlier work.
The conditions of data set [4]: reduction in neutrophils, monocytes, and lymphocytes ref in-house source data; cited from earlier work.
Setting [5] is: KATO III cell line, healthy donor plasma.

FGFR2, sequence (P21802 430-767 limits assumed): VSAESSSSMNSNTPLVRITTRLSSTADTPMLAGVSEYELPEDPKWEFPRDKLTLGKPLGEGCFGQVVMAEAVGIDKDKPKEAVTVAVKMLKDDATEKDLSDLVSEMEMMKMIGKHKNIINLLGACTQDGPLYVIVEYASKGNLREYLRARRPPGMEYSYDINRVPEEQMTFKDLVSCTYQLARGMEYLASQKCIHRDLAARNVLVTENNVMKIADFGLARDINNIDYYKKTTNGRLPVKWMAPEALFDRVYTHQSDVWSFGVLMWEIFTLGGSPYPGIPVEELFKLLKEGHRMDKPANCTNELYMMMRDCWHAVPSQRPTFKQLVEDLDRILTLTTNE

For the substance tinengotinib, the “Mean t1/2 (half-life)” value in data set [1] fell in the range of 28 to 34 h. Also, on FGFR2 (KATO III cell line model), the “IC70, FGFR2 phosphorylation” value stood at 37.85 nM and the “IC85, FGFR2 phosphorylation” value is given as 90.28 nM. On FGFR2 (KATO III cell line model, read-out: IC50, FGFR2 phosphorylation), the IC50 was 16.5 nM. For the same substance, on FGFR2 (setting [5]), the “IC50, FGFR2 phosphorylation” value came out at 0.00651 µg/mL and the “IC90, FGFR2 phosphorylation” value worked out at 0.05607 µg/mL. Also, the IC90 at FGFR2 (KATO III cell line, healthy donor plasma, read-out: IC90, FGFR2 phosphorylation) is 142 nM. For the same substance, the FGFR2 inhibition maintained on FGFR2 (tinengotinib dosed at ≥5 mg once daily, from IC70 and Cmin) is listed as greater than 70%. On FGFR2 (tinengotinib dosed at ≥12 mg once daily, from IC85 and Cmin), this substance showed an FGFR2 inhibition maintained greater than 85%. In data set [2] (5 mg/kg ref 3), the “AUC (minimal efficacious)” value is 707 ng·h/mL and the TGI is on record as 61.5%. In addition, in data set [2] (preclinical PK/PD models ref 3), the Lowest active dose is reported as 5 mg/kg. Moreover, the Stomatitis in data set [3] was 28.1%. Besides, in data set [4], the Preclinical toxicity finding result is recorded as “myelosuppression”.
